# Laboratory results reported in ChEMBL document CHEMBL3600303, “The N-Terminal T-T Motif of a Third-Generation HIV-1 Fusion Inhibitor Is Not Required for Binding Affinity and Antiviral Activity” (J Med Chem, 2015).
# Active and inactive are the calls of the source. The calls are words filed in the database; no cut-off is given here.
# Assays:
# [1] = target: Envelope glycoprotein gp160 (Human immunodeficiency virus type 1 group M subtype B (isolate HXB2)(HIV-1)) (UniProt P04578); experiment: Binding affinity to HIV-1 HXB2 gp41 N-terminal heptad repeat assessed as thermostability of compound after 30 mins by CD spectroscopic analysis; conditions: Human immunodeficiency virus 1
# [2] = system: Human immunodeficiency virus 1; experiment: Antiviral activity against HIV1 NL4-3 pseudovirus infected in human TZM-bl cells assessed as inhibition of viral entry into cells after 48 hrs by single-cycle infection assay; type: functional, organism-based; conditions: Human immunodeficiency virus 1, NL4-3, TZM-bl
# [3] = target: Envelope glycoprotein gp160 (Human immunodeficiency virus type 1 group M subtype B (isolate HXB2)(HIV-1)) (UniProt P04578); experiment: Binding affinity to HIV-1 HXB2 gp41 N-terminal heptad repeat assessed as increase in 6-helix bundle thermostability at 10 uM after 30 mins by CD spectroscopic analysis; conditions: Human immunodeficiency virus 1
# [4] = system: Human immunodeficiency virus 1; experiment: Antiviral activity against HIV-1 ZM214M.15 pseudovirus infected in human TZM-bl cells assessed as inhibition of viral entry into cells after 48 hrs by single-cycle infection assay; type: functional, organism-based; conditions: Human immunodeficiency virus 1, ZM214M.15, TZM-bl
# [5] = system: Human immunodeficiency virus 1; experiment: Antiviral activity against wild type HIV1 NL4-3 infected in human TZM-bl cells assessed as inhibition of viral replication after 2 days by luciferase reporter gene assay; type: functional, organism-based; conditions: Human immunodeficiency virus 1, NL4-3, TZM-bl, 48 h
# [6] = Thermostability of the compound in PBS assessed as melting temperature at 20 uM by CD spectroscopic analysis; type: physicochemical; conditions: buffer
# [7] = target: Envelope glycoprotein gp160 (Human immunodeficiency virus 1) (UniProt Q72502); experiment: Binding affinity to HIV1 NL4-3 gp41 N-terminal heptad repeat Q40H mutant after 30 mins by CD spectroscopic analysis
# [8] = system: Envelope glycoprotein gp160 (Human immunodeficiency virus 1), Q72502 [V38A]; experiment: Binding affinity to HIV1 NL4-3 gp41 N-terminal heptad repeat V38A mutant after 30 mins by CD spectroscopic analysis
# [9] = system: Human immunodeficiency virus 1; experiment: Antiviral activity against HIV-1 SC42261.8 pseudovirus infected in human TZM-bl cells assessed as inhibition of viral entry into cells after 48 hrs by single-cycle infection assay; type: functional, organism-based; conditions: Human immunodeficiency virus 1, SC42261.8, TZM-bl
# [10] = target: Envelope glycoprotein gp160 (Human immunodeficiency virus 1) (UniProt Q72502); experiment: Binding affinity to HIV1 NL4-3 gp41 N-terminal heptad repeat V38A/N42T double mutant after 30 mins by CD spectroscopic analysis
# [11] = system: Human immunodeficiency virus 1; experiment: Antiviral activity against HIV-1 SF162 pseudovirus infected in human TZM-bl cells assessed as inhibition of viral entry into cells after 48 hrs by single-cycle infection assay; type: functional, organism-based; conditions: Human immunodeficiency virus 1, SF162, TZM-bl
# [12] = target: Envelope glycoprotein gp160 (Human immunodeficiency virus type 1 group M subtype B (isolate HXB2)(HIV-1)) (UniProt P04578); experiment: Binding affinity to HIV-1 HXB2 gp41 N-terminal heptad repeat assessed as thermostability of protein-compound complex at 10 uM after 30 mins by CD spectroscopic analysis; conditions: Human immunodeficiency virus 1
# [13] = target: Envelope glycoprotein gp160 (Human immunodeficiency virus 1) (UniProt Q72502); experiment: Binding affinity to HIV1 NL4-3 gp41 N-terminal heptad repeat I37T mutant after 30 mins by CD spectroscopic analysis
# [14] = target: Envelope glycoprotein gp160 (Human immunodeficiency virus 1) (UniProt Q72502); experiment: Binding affinity to HIV1 NL4-3 gp41 N-terminal heptad repeat N43K mutant after 30 mins by CD spectroscopic analysis
# [15] = target: Envelope glycoprotein gp160 (Human immunodeficiency virus 1) (UniProt Q72502); experiment: Binding affinity to HIV1 NL4-3 gp41 N-terminal heptad repeat I37T/N43K double mutant after 30 mins by CD spectroscopic analysis
# [16] = target: Envelope glycoprotein gp160 (Human immunodeficiency virus 1) (UniProt Q72502); experiment: Binding affinity to HIV1 NL4-3 gp41 N-terminal heptad repeat G36D mutant after 30 mins by CD spectroscopic analysis
# Serum = experiment: Metabolic stability in Sprague-Dawley rat serum at 4 mg/kg, ip measured at 0.5 to 4 hrs post dose; type: ADME, organism-based; conditions: in vivo
# [17] = target: Envelope glycoprotein gp160 (Human immunodeficiency virus type 1 group M subtype B (isolate HXB2)(HIV-1)) (UniProt P04578); experiment: Binding affinity to HIV-1 HXB2 gp41 N-terminal heptad repeat assessed as thermostability of compound at 10 uM after 30 mins by CD spectroscopic analysis; conditions: Human immunodeficiency virus 1
substance,measurement,setting,value
H-MTWEAWDRAIAEYAARIEALIR-OH,Tm,[1],68.2 °C
same,IC50,[2],86.7 nM
H-MTWEAWDRAIAEYAARIEALIRAAQEQQEKNEAALREL-OH,Activity,[3],Active
same,IC50,[4],0.74 nM
same,IC50,[5],0.25 nM
same,Stability,[6],Stable
same,Activity,[7],Active
same,Activity,[8],Active
same,IC50,[9],1.65 nM
same,Activity,[10],Active
same,IC50,[11],4.98 nM
same,Tm,[12],88.1 °C
same,IC50,[2],0.46 nM
same,Activity,[13],Active
same,Activity,[14],Active
same,Activity,[15],Active
same,Activity,[16],Active
same,Stability,Serum,Unstable
H-MTWEEWDKKIEEYTKKIEELI-OH,Tm,[17],76.2 °C
same,IC50,[5],3.13 nM
same,IC50,[2],4.26 nM
H-MTWEEWDKKIEEYTKKIEELIKKS-OH,Tm,[17],78.2 °C
same,IC50,[5],0.9 nM
same,IC50,[2],1.29 nM
